pKd: −log10 of the molar value.
Target: T1, DCAF1 WD40 domain (residues 1077-1390) (Homo sapiens, UniProt Q9Y4B6)
T1 construct: DCAF1 WD40 domain (residues 1077-1390)
Assay: DCAF1 binding assay by SPR (Biacore 8K+), DCAF1-3 KD
Details: 25 °C, read-out: DCAF1-3 SPR (KD)

T1 sequence (Q9Y4B6 1077-1390): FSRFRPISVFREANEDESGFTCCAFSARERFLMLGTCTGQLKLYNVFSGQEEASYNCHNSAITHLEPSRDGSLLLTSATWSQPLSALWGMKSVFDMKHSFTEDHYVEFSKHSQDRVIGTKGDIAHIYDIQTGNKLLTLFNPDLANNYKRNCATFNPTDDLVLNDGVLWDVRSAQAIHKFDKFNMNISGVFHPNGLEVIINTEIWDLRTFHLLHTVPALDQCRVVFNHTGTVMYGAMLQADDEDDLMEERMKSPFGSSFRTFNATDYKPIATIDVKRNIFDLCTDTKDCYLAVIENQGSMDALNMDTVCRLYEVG

pKd | Structure (SMILES)
< 3.70 | Cc1sc(N2CCC[C@@H](Nc3cc(N4CCOCC4)ccn3)C2)nc1-c1ccccc1 [I-411]
4.00 to 5.00 | Oc1ccc(N2CCC[C@@H]3[C@H]2CCN3c2cc(N3CC4CC(C4)C3)ccn2)cc1 [I-709]
< 3.70 | Fc1cccc(N2C[C@H](F)C[C@@H](Nc3cc(N4CCOCC4)ccn3)C2)c1 [I-275]
4.00 to 5.00 | NC(=O)C[C@H](NC(=O)c1cnn(CC2CC2)c1-c1ccccc1F)c1cccc(Cl)c1 [I-133]
< 3.70 | COCCN1CCN(c2cc(N[C@@H]3CCCN(c4cccc(F)c4)C3)ncn2)CC1 [I-378]
< 3.70 | NC(=O)C[C@H](NC(=O)c1cnn(CC2CCCCC2)c1-c1ccccc1F)c1cccc(Cl)c1 [I-165]
4.00 to 5.00 | CC1CCN(c2ccnc(N[C@@H]3CCCN(c4cccc(F)c4)C3)c2)CC1 [I-571]
> 5.00 | Oc1ccc(N2CCC[C@H]3[C@@H]2CCN3c2cc(N3CC4CC(C4)C3)ccn2)cc1 [I-718]
4.00 to 5.00 | NC(=O)C[C@H](NC(=O)c1cn[nH]c1-c1cccc(C(N)=O)c1)c1cccc(Cl)c1 [I-350]
> 5.00 | Fc1cccc(N2CCC[C@@H]3[C@H]2CCN3c2cc(N3CC4CCC(C4)C3)ccn2)c1 [I-604]
4.00 to 5.00 | CN(c1ccccc1)c1ccnc(N[C@@H]2CCCN(c3cccc(F)c3)C2)c1 [I-614]
< 3.70 | OC[C@@H]1[C@H](Nc2cc(N3CCOCC3)ccn2)CCCN1c1cccc(F)c1 [I-279]
> 5.00 | NCCOCCOCCOCCOCC(=O)c1[nH]cc(C(=O)N[C@@H](CC(N)=O)c2cccc(Cl)c2)c1-c1ccccc1F [I-674]
< 3.70 | NC(=O)C[C@H](NC(=O)c1cnn(Cc2ccncn2)c1-c1ccccc1F)c1cccc(Cl)c1 [I-154]
< 3.70 | c1ccc2c(c1)nc(N1CCC[C@@H](Nc3cc(N4CCOCC4)ccn3)C1)c1nnnn12 [I-423]
4.00 to 5.00 | COc1ccc(F)cc1N1CCC[C@@H]2[C@H]1CCN2c1cc(N2CCCCC2)ccn1 [I-796]
< 3.70 | Cn1nnnc1-c1ccc(F)c(-c2n[nH]cc2C(=O)N[C@@H](CC(N)=O)c2cccc(Cl)c2)c1 [I-268]

pKd | Structure (SMILES)
3.70 to 4.00 | Cc1ccc(N2CCC[C@@H](Nc3cc(N4CCOCC4)ncn3)C2)cc1 [I-8]
4.00 to 5.00 | COc1cc(N2CCC[C@@H](Nc3cc(N4CCOCC4)ccn3)C2)cnc1CO [I-854]
> 5.00 | NCCOCCOCCOCCOCCOCCOCC(=O)c1[nH]cc(C(=O)N[C@@H](CC(N)=O)c2cccc(Cl)c2)c1-c1ccccc1F [I-676]
4.00 to 5.00 | c1ccc2c(N3CCC[C@@H](Nc4nccc(N5CCOCC5)n4)C3)cncc2c1 [I-54]
< 3.70 | NC(=O)C[C@H](NC(=O)c1cn[nH]c1-c1ccccc1F)c1cccnc1 [I-131]
> 5.00 | COCCOCCC1CN(c2cc(N3CCOCC3)ccn2)[C@H]2CCCN(c3cccc(F)c3)[C@@H]12 (stereo partly shown) [I-827]
> 5.00 | Cc1c(F)ccc(F)c1-c1c(C(=O)N[C@@H](CC(N)=O)c2cccc(Cl)c2)cn(C(C)C)c1C#N [I-976]
> 5.00 | Cc1ccccc1-c1[nH]ncc1C(=O)N[C@@H](CC(N)=O)c1cccc(Cl)c1 [I-104]
< 3.70 | CCCN1CCN(c2ccnc(N[C@@H]3CCCN(c4cccc(F)c4)C3)n2)CC1 [I-317]
4.00 to 5.00 | c1ccc(Oc2cncc(N3CCC[C@@H](Nc4cc(N5CCOCC5)ccn4)C3)c2)cc1 [I-436]
< 3.70 | Oc1c(CN2CCCCC2)cccc1[C@@H]1CCCN(c2cccc(F)c2)C1 [I-730]
3.70 to 4.00 | Fc1cc2ccccc2c(N2CCC[C@@H](Nc3cc(N4CCOCC4)ccn3)C2)n1 [I-72]
> 5.00 | Nc1cc(N[C@@H]2CCCN(c3cccc(F)c3)C2)cc(N2CCOCC2)c1 [I-538]
< 3.70 | COC(=O)c1cc(N2CCC[C@@H](Nc3cc(N4CCOCC4)ccn3)C2)cc2c1OCO2 [I-779]
> 5.00 | Fc1cccc(N2CCCC(N3CCc4c(N5CC6CC(C6)C5)ccnc43)C2)c1 (stereo not shown) [I-790]
< 3.70 | Cc1cccc(N2CCC[C@@H](Nc3cc(N4CCOCC4)ncn3)C2)c1 [I-5]
3.70 to 4.00 | c1cc(N2CCC[C@@H](Nc3nccc(N4CCOCC4)n3)C2)c2ccncc2c1 [I-55]

Reference: US20260373266A1, “PROTEIN DEGRADERS AND USES THEREOF” (KYMERA THERAPEUTICS, INC., priority 2022, published 2026)
